Laboratory results: paper PMC5355060, “Preclinical pharmacodynamic evaluation of drug candidate SKLB-178 in the treatment of non-small cell lung cancer” (Oncotarget, 2017)

What was measured:
Type in all cases: biochemical
KDR (VEGFR2) = KDR (VEGFR2) (Homo sapiens, UniProt P35968); experiment: […] radiolabeled kinase assay (Millipore KinaseProfiler)
MET = MET (Homo sapiens, UniProt P08581); experiment: […] radiolabeled kinase assay, single dose […]
EGFR L858R = EGFR L858R (Homo sapiens, UniProt P00533, L858R); experiment: […] radiolabeled kinase assay (Millipore KinaseProfiler)
EGFR = EGFR (Homo sapiens, UniProt P00533); experiment: as above
PDGFRα = target: T1, PDGFRα (Homo sapiens, UniProt P16234); experiment: […] radiolabeled kinase assay, single dose […]
T1 construct: gene PDGFRA
T1 sequence (P16234 24-1089): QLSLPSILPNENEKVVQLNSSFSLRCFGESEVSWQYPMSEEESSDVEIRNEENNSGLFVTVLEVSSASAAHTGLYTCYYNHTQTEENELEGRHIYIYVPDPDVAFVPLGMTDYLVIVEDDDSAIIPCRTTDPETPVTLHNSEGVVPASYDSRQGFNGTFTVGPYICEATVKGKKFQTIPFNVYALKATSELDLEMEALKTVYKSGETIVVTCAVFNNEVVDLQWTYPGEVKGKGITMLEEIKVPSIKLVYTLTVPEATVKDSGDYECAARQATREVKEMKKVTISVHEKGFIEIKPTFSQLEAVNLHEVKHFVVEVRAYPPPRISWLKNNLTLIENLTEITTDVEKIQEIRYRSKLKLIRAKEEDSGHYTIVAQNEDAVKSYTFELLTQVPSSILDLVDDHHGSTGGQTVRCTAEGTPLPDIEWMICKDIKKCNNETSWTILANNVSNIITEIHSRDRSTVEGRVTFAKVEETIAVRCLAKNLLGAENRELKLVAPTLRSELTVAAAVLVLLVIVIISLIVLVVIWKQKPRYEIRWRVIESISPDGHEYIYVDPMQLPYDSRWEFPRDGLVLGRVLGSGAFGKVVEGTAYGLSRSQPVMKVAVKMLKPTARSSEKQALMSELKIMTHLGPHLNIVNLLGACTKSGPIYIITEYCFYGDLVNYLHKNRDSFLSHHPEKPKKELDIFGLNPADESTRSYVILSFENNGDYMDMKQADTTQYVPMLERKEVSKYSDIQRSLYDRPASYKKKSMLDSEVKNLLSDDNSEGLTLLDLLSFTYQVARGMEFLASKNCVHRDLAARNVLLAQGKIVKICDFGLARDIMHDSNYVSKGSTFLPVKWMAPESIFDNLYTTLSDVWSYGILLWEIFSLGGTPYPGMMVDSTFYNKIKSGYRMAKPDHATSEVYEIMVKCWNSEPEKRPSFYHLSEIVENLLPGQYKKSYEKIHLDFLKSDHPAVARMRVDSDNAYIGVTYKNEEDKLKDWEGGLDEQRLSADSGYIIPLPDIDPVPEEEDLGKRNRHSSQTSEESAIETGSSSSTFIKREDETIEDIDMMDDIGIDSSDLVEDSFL

Src = Src (Homo sapiens, UniProt P12931); experiment: […] radiolabeled kinase assay (Millipore KinaseProfiler)
Sequence of Src (P12931 2-536): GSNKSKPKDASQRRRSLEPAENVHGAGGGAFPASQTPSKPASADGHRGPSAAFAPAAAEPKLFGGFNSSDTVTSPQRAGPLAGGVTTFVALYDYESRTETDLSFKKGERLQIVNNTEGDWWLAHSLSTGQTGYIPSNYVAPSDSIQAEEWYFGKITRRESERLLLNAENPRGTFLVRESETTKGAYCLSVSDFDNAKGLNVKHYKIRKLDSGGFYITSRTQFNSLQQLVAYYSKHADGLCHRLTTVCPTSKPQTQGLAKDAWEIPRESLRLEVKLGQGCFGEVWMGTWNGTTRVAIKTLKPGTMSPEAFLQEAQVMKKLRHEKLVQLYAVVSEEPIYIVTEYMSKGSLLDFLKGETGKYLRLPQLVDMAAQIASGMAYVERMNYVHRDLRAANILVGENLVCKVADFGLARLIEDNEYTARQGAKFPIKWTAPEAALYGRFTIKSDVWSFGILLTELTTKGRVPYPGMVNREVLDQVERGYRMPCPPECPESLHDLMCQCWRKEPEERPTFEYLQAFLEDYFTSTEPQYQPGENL

ErbB4 = ErbB4 (Homo sapiens, UniProt Q15303); experiment: […] radiolabeled kinase assay, single dose […]
Sequence of ErbB4 (Q15303 26-1308): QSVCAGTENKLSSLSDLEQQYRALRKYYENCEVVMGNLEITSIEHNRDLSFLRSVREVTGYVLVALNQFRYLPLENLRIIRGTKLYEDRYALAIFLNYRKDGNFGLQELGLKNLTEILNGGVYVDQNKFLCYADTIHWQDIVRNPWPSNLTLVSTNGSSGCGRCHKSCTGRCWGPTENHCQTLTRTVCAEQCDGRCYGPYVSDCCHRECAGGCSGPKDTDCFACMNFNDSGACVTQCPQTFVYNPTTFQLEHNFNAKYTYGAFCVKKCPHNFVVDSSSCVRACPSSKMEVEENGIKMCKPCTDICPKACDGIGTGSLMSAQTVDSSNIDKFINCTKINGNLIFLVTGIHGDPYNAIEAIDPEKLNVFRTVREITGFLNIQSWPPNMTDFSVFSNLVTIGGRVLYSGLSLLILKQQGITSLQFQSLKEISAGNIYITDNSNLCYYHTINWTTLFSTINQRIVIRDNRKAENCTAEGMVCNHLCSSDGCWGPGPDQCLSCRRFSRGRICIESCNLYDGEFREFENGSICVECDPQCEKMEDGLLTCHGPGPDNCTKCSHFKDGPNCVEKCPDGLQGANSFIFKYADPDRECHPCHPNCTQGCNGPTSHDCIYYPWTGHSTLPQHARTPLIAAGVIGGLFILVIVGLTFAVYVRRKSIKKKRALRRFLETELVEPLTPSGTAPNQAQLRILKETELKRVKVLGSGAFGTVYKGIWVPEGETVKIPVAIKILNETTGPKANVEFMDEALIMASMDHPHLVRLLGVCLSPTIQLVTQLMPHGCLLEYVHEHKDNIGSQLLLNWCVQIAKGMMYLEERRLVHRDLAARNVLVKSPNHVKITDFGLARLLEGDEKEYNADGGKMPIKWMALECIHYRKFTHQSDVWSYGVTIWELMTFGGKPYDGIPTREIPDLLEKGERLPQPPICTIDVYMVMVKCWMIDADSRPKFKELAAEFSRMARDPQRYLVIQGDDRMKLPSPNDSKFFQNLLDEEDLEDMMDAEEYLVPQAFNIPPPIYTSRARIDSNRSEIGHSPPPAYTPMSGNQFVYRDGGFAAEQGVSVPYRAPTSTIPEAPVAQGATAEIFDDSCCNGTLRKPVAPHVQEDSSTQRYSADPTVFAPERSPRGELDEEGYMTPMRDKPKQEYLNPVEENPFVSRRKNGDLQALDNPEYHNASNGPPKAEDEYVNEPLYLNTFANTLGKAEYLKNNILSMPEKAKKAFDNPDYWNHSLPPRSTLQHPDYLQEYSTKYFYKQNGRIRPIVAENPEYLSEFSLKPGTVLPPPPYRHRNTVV

EGFR L858R/T790M = EGFR L858R/T790M (Homo sapiens, UniProt P00533, T790M/L858R); experiment: […] radiolabeled kinase assay (Millipore KinaseProfiler)
Sequence of EGFR L858R/T790M (P00533 669-1210 T790M/L858R limits assumed): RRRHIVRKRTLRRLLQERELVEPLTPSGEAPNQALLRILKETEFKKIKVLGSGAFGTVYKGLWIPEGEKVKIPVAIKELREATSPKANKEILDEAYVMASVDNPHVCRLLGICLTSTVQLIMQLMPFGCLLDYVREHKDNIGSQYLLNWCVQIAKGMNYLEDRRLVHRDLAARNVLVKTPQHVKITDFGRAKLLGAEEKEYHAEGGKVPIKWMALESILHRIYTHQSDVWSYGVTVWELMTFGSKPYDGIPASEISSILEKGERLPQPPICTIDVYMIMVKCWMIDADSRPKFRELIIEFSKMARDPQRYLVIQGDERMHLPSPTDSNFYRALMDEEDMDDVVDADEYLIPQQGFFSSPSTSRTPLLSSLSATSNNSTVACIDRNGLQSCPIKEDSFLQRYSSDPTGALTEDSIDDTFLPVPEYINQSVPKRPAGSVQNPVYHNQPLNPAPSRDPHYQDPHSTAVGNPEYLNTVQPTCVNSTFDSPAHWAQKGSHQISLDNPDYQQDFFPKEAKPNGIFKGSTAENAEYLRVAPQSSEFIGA

Sequence of MET (P08581 25-307): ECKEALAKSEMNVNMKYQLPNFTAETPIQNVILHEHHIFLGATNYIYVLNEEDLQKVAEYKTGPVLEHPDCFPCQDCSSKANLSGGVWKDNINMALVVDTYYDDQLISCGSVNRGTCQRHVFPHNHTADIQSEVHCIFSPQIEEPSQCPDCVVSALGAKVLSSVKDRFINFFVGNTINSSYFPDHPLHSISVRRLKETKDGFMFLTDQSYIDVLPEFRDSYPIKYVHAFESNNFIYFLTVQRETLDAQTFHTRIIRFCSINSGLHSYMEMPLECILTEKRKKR
Sequence of MET (P08581 308-1390): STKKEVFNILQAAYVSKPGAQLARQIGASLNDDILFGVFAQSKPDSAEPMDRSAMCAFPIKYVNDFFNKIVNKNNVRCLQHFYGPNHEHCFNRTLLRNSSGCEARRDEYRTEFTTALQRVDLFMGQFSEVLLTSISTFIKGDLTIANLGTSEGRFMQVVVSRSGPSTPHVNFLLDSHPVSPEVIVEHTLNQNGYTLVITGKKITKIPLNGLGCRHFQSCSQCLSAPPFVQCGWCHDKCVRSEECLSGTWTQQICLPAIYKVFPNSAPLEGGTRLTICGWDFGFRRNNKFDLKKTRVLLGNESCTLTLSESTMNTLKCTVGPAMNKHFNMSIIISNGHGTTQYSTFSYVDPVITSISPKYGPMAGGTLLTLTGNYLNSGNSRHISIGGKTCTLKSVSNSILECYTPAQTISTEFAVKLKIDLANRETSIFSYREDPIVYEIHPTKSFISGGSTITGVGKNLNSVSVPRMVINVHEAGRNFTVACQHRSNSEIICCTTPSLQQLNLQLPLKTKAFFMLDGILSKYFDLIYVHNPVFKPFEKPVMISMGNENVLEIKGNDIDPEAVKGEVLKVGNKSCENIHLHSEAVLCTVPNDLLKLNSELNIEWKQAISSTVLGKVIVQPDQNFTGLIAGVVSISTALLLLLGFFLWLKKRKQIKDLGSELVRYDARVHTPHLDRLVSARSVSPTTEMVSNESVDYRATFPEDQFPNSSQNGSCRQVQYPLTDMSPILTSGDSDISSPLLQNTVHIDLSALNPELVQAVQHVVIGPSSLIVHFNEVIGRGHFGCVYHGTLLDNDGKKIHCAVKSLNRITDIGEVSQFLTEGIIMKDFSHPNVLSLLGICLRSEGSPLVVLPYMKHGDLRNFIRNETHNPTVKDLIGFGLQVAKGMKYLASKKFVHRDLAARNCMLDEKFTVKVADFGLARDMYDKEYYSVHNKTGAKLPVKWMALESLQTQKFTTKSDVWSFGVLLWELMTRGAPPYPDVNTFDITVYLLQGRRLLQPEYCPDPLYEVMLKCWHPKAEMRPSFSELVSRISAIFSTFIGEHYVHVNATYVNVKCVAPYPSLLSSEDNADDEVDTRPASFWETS

33P radiolabeled kinase assay (Millipore KinaseProfiler) (KDR (VEGFR2)): completely inhibited at 10 μM or 1 μM
inhibition at 10 µM (MET): 88%
33P radiolabeled kinase assay (Millipore KinaseProfiler) (EGFR L858R): completely inhibited at 10 μM or 1 μM
33P radiolabeled kinase assay (Millipore KinaseProfiler) (EGFR): completely inhibited at 10 μM or 1 μM
inhibition at 1 µM (PDGFRα): 58%
33P radiolabeled kinase assay (Millipore KinaseProfiler) (Src): completely inhibited at 10 μM or 1 μM
inhibition at 1 µM (ErbB4): 100%
33P radiolabeled kinase assay (Millipore KinaseProfiler) (EGFR L858R/T790M): completely inhibited at 10 μM or 1 μM
SMILES: CN1CCN(c2ccc(Nc3ncc4nc(Nc5ccc(Br)cc5)n(C5CCCC5)c4n3)cc2)CC1 [SKLB-178]
